Experimental findings from patent publication US5238953A, “N-imidazolyl derivatives of substituted tetrahydrocarbazole and cyclohept (B) indole” (Farmitalia Carlo Erba S.R.L., priority 1991, dated 1993) are described below.

Structures are written as SMILES. Where two headings read alike, the source gives them in different places.

The subject of one experiment is TxB2 synthesis. In words: TxB2 synthesis inhibition in vitro in whole blood of normal rats. The conditions noted are these: Rattus norvegicus, read-out: In vitro effect on TxB2 synthesis in normal rats, IC50 (whole blood). The class given is cell-based, normal Sprague Dawley rats. The procedure: (§1) The effects of a representative group of compounds of the invention were evaluated, in comparison with known compounds, on TxB2 synthesis inhibition in vitro in whole blood of normal rats, and on TxA2 antagonism in a binding assay in washed human platelets.
TxB2 Synthesis Inhibition
Blood was withdrawn from the abdominal aorta of normal Sprague Dawley rats (Charles River Italy) under light ether anaesthesia. The blood was immediately divided in portions of 0.5 ml and distributed in glass tubes each containing a concentration of the test compound, or of the reference compounds.
Samples were then allowed to clot for 1 hour at 37° C., centrifuged at 3000 rpm for 10 min, and serum collected and stored at -20° C. until assayed.

The target in a further experiment is T1, TXA2 receptor (Homo sapiens, UniProt P21731).
T1 construct: endogenous in cells; host or cells: washed human platelets from blood of healthy volunteers
T1 sequence (P21731 1-343): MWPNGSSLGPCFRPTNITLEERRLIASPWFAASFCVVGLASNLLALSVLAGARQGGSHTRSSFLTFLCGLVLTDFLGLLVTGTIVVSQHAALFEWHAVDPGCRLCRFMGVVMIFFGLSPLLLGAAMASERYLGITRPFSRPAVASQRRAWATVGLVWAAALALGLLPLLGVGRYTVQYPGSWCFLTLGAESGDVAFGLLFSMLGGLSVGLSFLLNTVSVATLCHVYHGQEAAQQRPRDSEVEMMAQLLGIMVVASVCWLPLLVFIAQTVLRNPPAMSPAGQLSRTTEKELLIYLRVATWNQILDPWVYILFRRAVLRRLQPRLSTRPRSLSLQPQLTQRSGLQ
Briefly: Displacement of [^3 H]-SQ 29.548 binding to washed human platelets (TxA2 antagonism). The following applies: for affinity for the receptor: in words, compared with BM 13505 and BM 13177, binding test (washed human platelets); for IC50: washed human platelets, [^3 H]-SQ 29,548 5 nM, 30 min at 25° C., read-out: ^3 H SQ 29548 binding displacement (washed human platelet) IC50. The method, then: as §1
Displacement of [^3 H]-SQ 29.548 binding to washed human platelets
Blood from healthy volunteers of both sexes who had not taken any medication for at least 10 days was collected into one-tenth volume of acid citrate dextrose containing indomethacin (28 μM). Platelet rich plasma (PRP), obtained by centrifugation of the blood at 200×g for 20 min, was washed twice (1000×g for 10 min). The platelets are then resuspended in Tyrode-Hepes buffer (pH 7.4) to a final concentration of […] and incubated for 0-60 min at 25° with [^3 H]-SQ 29,548 (5 nM). For displacement experiments various concentrations (10^-9 -10^-4 M) of competing ligands were added and incubated for 30 min at 25° C. […] After the incubation, 4 ml of ice-cold TRIS-HCl buffer (10 mM, pH 7.4) was added to each tube and the reaction mixture was immediately filtered by suction through a Whatman GF/C glass filter disc which was washed 2 times with ice-cold TRIS-HCl (4 ml) and counted for radioactivity by a Packard β-counter.
The binding data were analysed by computerized non-linear curve fitting using the Ligand program and expressed as IC50.

Where [1] appears, read: whole blood of normal rats, clotted 1 hour at 37° C.

Turning to `CC(=O)Oc1ccccc1C(=O)O` [ASA, acetylsalicilic acid], the IC50 (usually the concentration that gives 50% inhibition) in the experiment with TxB2 synthesis (1 h) worked out at 31000 nM.

As to `O=C(O)c1ccc(OCCn2ccnc2)cc1` [Dazoxiben], the IC50 in the experiment with TxB2 synthesis (setting [1]) turned out to be 1200 nM.

As to `O=C(O)CC1CCCc2c(n(Cc3ccc(-n4ccnc4)cc3)c3ccc(F)cc23)C1` (stereo not shown) [FCE 27041, 2-Fluoro-5-[[4-(1H-imidazol-1-yl)phenyl]methyl]-5,6,7,8,9,10-hexahydrocyclohept[b]indole-7-acetic acid], at TXA2 receptor, the “affinity for the receptor” value was “affinity for the receptor greater than those of compounds BM 13505 and BM 13177”. In addition, the IC50 at TXA2 receptor was 6 nM; in the experiment with TxB2 synthesis (setting [1]) it was 198 nM.

Consider `O=C(O)CC1CCCc2c1n(Cc1ccc(-n3ccnc3)cc1)c1ccc(F)cc21` (stereo not shown) [FCE 26643, 6-Fluoro-9-[[4-(1H-imidazol-1-yl)phenyl]methyl]-1,2,3,4-tetrahydrocarbazol-1-yl-acetic acid], for which, on TXA2 receptor, the “affinity for the receptor” value was “affinity for the receptor greater than those of compounds BM 13505 and BM 13177”; the IC50 is 6.6 nM.
